Measured values from ChEMBL document CHEMBL1201861, “Genomics of Drug Sensitity in Cancer screening data, Wellcome Trust Sanger Institute”.

Assays:
Experiment in all cases: cells
Settings in all cases: Homo sapiens
COR-L88 = type: functional, cell-based;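 also: growth inhibition of COR-L88 cells, read out with a cell viability assay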
Description: SANGER: Inhibition of human COR-L88 cell growth in a cell viability assay.

CP66-MEL = type: functional, cell-based;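 also: growth inhibition of CP66-MEL cells determined in a cell viability assay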
Description: SANGER: Inhibition of human CP66-MEL cell growth in a cell viability assay.

CW-2 = type: functional, cell-based;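 also: growth inhibition of CW-2 cells, read out by a cell viability assay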
Description: SANGER: Inhibition of human CW-2 cell growth in a cell viability assay.

Calu-6 = type: functional, cell-based;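 also: growth of human Calu-6 cells, read out by a cell viability assay, IC50 marking inhibition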
Description: SANGER: Inhibition of human Calu-6 cell growth in a cell viability assay.

D283 Med = type: functional, cell-based
Description: SANGER: Inhibition of human D-283MED cell growth in a cell viability assay.

D-502MG = type: functional, cell-based
Description: SANGER: Inhibition of human D-502MG cell growth in a cell viability assay.

DB = type: functional, cell-based
Description: SANGER: Inhibition of human DB cell growth in a cell viability assay.

DEL = type: functional, cell-based;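 also: growth inhibition of the human DEL cell line, read out with a cell viability assay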
Description: SANGER: Inhibition of human DEL cell growth in a cell viability assay.

DOHH-2 = type: functional, cell-based;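 also: growth inhibition of human DOHH-2 cells, read out with a cell viability assay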
Description: SANGER: Inhibition of human DOHH-2 cell growth in a cell viability assay.

ES3 = type: functional, cell-based;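 also: growth inhibition of ES3 cells, read out with a cell viability assay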
Description: SANGER: Inhibition of human ES3 cell growth in a cell viability assay.

ES5 = type: functional, cell-based;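 also: growth inhibition of human ES5 cells, read out by a cell viability assay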
Description: SANGER: Inhibition of human ES5 cell growth in a cell viability assay.

ES8 = type: functional, cell-based;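 also: growth inhibition of human ES8 cells, read out with a cell viability assay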
Description: SANGER: Inhibition of human ES8 cell growth in a cell viability assay.

EW-1 = type: functional, cell-based;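 also: growth inhibition of the human EW-1 cell line, read out by a cell viability assay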
Description: SANGER: Inhibition of human EW-1 cell growth in a cell viability assay.

GAK = type: functional, cell-based;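 also: cell growth inhibition read out by a cell viability assay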
Description: SANGER: Inhibition of human GAK cell growth in a cell viability assay.

GI-ME-N = type: functional, cell-based;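 also: growth inhibition of human GI-ME-N cells, read out with a cell viability assay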
Description: SANGER: Inhibition of human GI-ME-N cell growth in a cell viability assay.

GT3TKB = type: functional, cell-based;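 also: growth inhibition of the cell line, read out with a cell viability assay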
Description: SANGER: Inhibition of human GT3TKB cell growth in a cell viability assay.

HH = type: functional, cell-based
Description: SANGER: Inhibition of human HH cell growth in a cell viability assay.

HL-60 = type: functional, cell-based;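 also: growth inhibition of human HL-60 cells, read out with a cell viability assay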
Description: SANGER: Inhibition of human HL-60 cell growth in a cell viability assay.

HT-144 = type: functional, cell-based
Description: SANGER: Inhibition of human HT-144 cell growth in a cell viability assay.

HuTu80 = type: functional, cell-based, HUTU-80;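 also: growth inhibition of HuTu80 human cells, determined with a cell viability readout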
Description: SANGER: Inhibition of human HUTU-80 cell growth in a cell viability assay.

IA-LM = type: functional, cell-based;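 also: cell viability assay measuring growth inhibition of human IA-LM cells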
Description: SANGER: Inhibition of human IA-LM cell growth in a cell viability assay.

IST-MES1 = type: functional, cell-based;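 also: growth inhibition of IST-MES1 cells, measured with a cell viability assay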
Description: SANGER: Inhibition of human IST-MES1 cell growth in a cell viability assay.

J-RT3-T3-5 = type: functional, cell-based;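 also: cell viability assay measuring growth inhibition of human J-RT3-T3-5 cells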
Description: SANGER: Inhibition of human J-RT3-T3-5 cell growth in a cell viability assay.

JAR = type: functional, cell-based;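 also: growth inhibition of human JAR cells determined with a cell viability assay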
Description: SANGER: Inhibition of human JAR cell growth in a cell viability assay.

JVM-2 = type: functional, cell-based;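 also: growth inhibition of JVM-2 cells determined by a cell viability assay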
Description: SANGER: Inhibition of human JVM-2 cell growth in a cell viability assay.

K5 = type: functional, cell-based
Description: SANGER: Inhibition of human K5 cell growth in a cell viability assay.

KALS-1 = type: functional, cell-based;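 also: growth inhibition of KALS-1 cells, determined with a cell viability assay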
Description: SANGER: Inhibition of human KALS-1 cell growth in a cell viability assay.

KARPAS-299 = type: functional, cell-based
Description: SANGER: Inhibition of human KARPAS-299 cell growth in a cell viability assay.

KARPAS-45 = type: functional, cell-based;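 also: inhibition of cell line growth, read out through a viability assay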
Description: SANGER: Inhibition of human KARPAS-45 cell growth in a cell viability assay.

KM12 = type: functional, cell-based;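 also: KM12 cell growth inhibition, read out with a cell viability assay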
Description: SANGER: Inhibition of human KM12 cell growth in a cell viability assay.

KMOE-2 = type: functional, cell-based;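 also: growth inhibition of human KMOE-2 cells, read out with a cell viability assay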
Description: SANGER: Inhibition of human KMOE-2 cell growth in a cell viability assay.

L-363 = type: functional, cell-based
Description: SANGER: Inhibition of human L-363 cell growth in a cell viability assay.

LAN-6 = type: functional, cell-based;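 also: growth inhibition of LAN-6 cells, determined with a cell viability assay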
Description: SANGER: Inhibition of human LAN-6 cell growth in a cell viability assay.

LB2518-MEL = type: functional, cell-based;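 also: growth inhibition of human LB2518-MEL cells, measured with a cell viability assay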
Description: SANGER: Inhibition of human LB2518-MEL cell growth in a cell viability assay.

LC-2-ad = type: functional, cell-based;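 also: growth inhibition of human LC-2-ad cells, read out with a cell viability assay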
Description: SANGER: Inhibition of human LC-2-ad cell growth in a cell viability assay.

LOX IMVI = type: functional, cell-based
Description: SANGER: Inhibition of human LOXIMVI cell growth in a cell viability assay.

LU-134-A = type: functional, cell-based
Description: SANGER: Inhibition of human LU-134-A cell growth in a cell viability assay.

Lu-65 = type: functional, cell-based;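 also: growth inhibition of Lu-65 cancer cells, read out by a cell viability assay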
Description: SANGER: Inhibition of human LU-65 cell growth in a cell viability assay.

MEG-01 = type: functional, cell-based;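 also: growth inhibition of MEG-01 cells, read out by a cell viability assay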
Description: SANGER: Inhibition of human MEG-01 cell growth in a cell viability assay.

MHH-PREB-1 = type: functional, cell-based;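 also: cell viability assay measuring inhibition of proliferation of human MHH-PREB-1 cells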
Description: SANGER: Inhibition of human MHH-PREB-1 cell growth in a cell viability assay.

MLMA = type: functional, cell-based;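 also: growth inhibition of MLMA cells (human), determined through a cell viability readout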
Description: SANGER: Inhibition of human MLMA cell growth in a cell viability assay.

MOLT-4 = type: functional, cell-based;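 also: growth inhibition of MOLT-4 cells, determined with a cell viability readout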
Description: SANGER: Inhibition of human MOLT-4 cell growth in a cell viability assay.

MV4-11 = type: functional, cell-based, MV-4-11;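 also: cell viability readout measuring growth inhibition of human MV-4-11 cells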
Description: SANGER: Inhibition of human MV-4-11 cell growth in a cell viability assay.

MZ7-mel = type: functional, cell-based;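 also: growth inhibition of human MZ7-mel cells, measured by a cell viability assay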
Description: SANGER: Inhibition of human MZ7-mel cell growth in a cell viability assay.

NCI-H1581 = type: functional, cell-based;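 also: cell growth inhibition read out by a viability assay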
Description: SANGER: Inhibition of human NCI-H1581 cell growth in a cell viability assay.

NCI-H1770 = type: functional, cell-based;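 also: growth inhibition of NCI-H1770 cells determined with a viability readout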
Description: SANGER: Inhibition of human NCI-H1770 cell growth in a cell viability assay.

SNU1 = type: functional, cell-based;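 also: growth inhibition of human NCI-SNU-1 cells, measured with a cell viability assay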
Description: SANGER: Inhibition of human NCI-SNU-1 cell growth in a cell viability assay.

NMC-G1 = type: functional, cell-based;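 also: growth inhibition of the NMC-G1 cell line, measured with a cell viability read-out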
Description: SANGER: Inhibition of human NMC-G1 cell growth in a cell viability assay.

NTERA-2-cl-D1 = type: functional, cell-based;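 also: inhibition of cell growth, measured with a cell viability assay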
Description: SANGER: Inhibition of human NTERA-S-cl-D1 cell growth in a cell viability assay.

OCUB-M = type: functional, cell-based;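 also: growth inhibition of the cancer cell line, read out through a cell viability assay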
Description: SANGER: Inhibition of human OCUB-M cell growth in a cell viability assay.

ONS-76 = type: functional, cell-based;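 also: growth inhibition of human ONS-76 cells, read out with a cell viability assay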
Description: SANGER: Inhibition of human ONS-76 cell growth in a cell viability assay.

OVCAR-4 = type: functional, cell-based;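 also: growth inhibition of human OVCAR-4 cells, measured with a cell viability assay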
Description: SANGER: Inhibition of human OVCAR-4 cell growth in a cell viability assay.

QIMR-WIL = type: functional, cell-based;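 also: growth inhibition of QIMR-WIL cells, read out with a cell viability assay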
Description: SANGER: Inhibition of human QIMR-WIL cell growth in a cell viability assay.

RPMI-8866 = type: functional, cell-based
Description: SANGER: Inhibition of human RPMI-8866 cell growth in a cell viability assay.

RXF 393 = type: functional, cell-based;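 also: growth inhibition of human RXF 393 cells, read out with a cell viability assay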
Description: SANGER: Inhibition of human RXF393 cell growth in a cell viability assay.

SBC-1 = type: functional, cell-based;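 also: cell viability assay measuring growth inhibition of the SBC-1 cell line, IC50 being the concentration that halves growth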
Description: SANGER: Inhibition of human SBC-1 cell growth in a cell viability assay.

SHP77 = type: functional, cell-based, SHP-77;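 also: growth inhibition of human SHP-77 cells measured by a cell viability assay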
Description: SANGER: Inhibition of human SHP-77 cell growth in a cell viability assay.

SK-N-FI = type: functional, cell-based;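 also: cell viability assay measuring growth inhibition of human SK-N-FI cells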
Description: SANGER: Inhibition of human SK-N-FI cell growth in a cell viability assay.

SK-PN-DW = type: functional, cell-based;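 also: growth inhibition measured with a viability assay on these cells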
Description: SANGER: Inhibition of human SK-PN-DW cell growth in a cell viability assay.

SW 962 = type: functional, cell-based;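 also: growth inhibition of human SW962 cells, read out by a cell viability assay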
Description: SANGER: Inhibition of human SW962 cell growth in a cell viability assay.

A3-KAW = type: functional, cell-based
Description: SANGER: Inhibition of human A3-KAW cell growth in a cell viability assay.

A4-Fuk = type: functional, cell-based
Description: SANGER: Inhibition of human A4-Fuk cell growth in a cell viability assay.

A704 = type: functional, cell-based
Description: SANGER: Inhibition of human A704 cell growth in a cell viability assay.

TE-10 = type: functional, cell-based
Description: SANGER: Inhibition of human TE-10 cell growth in a cell viability assay.

TE-11 = type: functional, cell-based
Description: SANGER: Inhibition of human TE-11 cell growth in a cell viability assay.

UACC-257 = type: functional, cell-based
Description: SANGER: Inhibition of human UACC-257 cell growth in a cell viability assay.

**Q.** How did the IC50 (COR-L88) turn out when `C/C=C(/C)C(=O)O[C@H]1C(C)=C2[C@H]([C@@H]1OC(=O)CCCCCCC)[C@@](C)(OC(C)=O)C[C@H](OC(=O)CCC)[C@@]1(O)[C@H]2OC(=O)[C@@]1(C)O` [THAPSIGARGIN] was run?
**A.** Its IC50 is 266 nM.

**Q.** What about the IC50 (CP66-MEL) of the same compound?
**A.** The IC50 was 3.6 nM.

**Q.** What about the IC50 (CW-2) of the same compound?
**A.** Its IC50 is > 512 nM.

**Q.** What about the IC50 (Calu-6) of the same compound?
**A.** Its IC50 is 4.79 nM.

**Q.** What about the IC50 (D283 Med) of the same compound?
**A.** The IC50 was < 2 nM.

**Q.** What about the IC50 (D-502MG) of the same compound?
**A.** Its IC50 is 343 nM.

**Q.** And the IC50 (DB)?
**A.** The IC50 was 2.55 nM.

**Q.** What about the IC50 (DEL) of the same compound?
**A.** The IC50 was 10.3 nM.

**Q.** What about the IC50 (DOHH-2) of the same compound?
**A.** The IC50 was 22.3 nM.

**Q.** And the IC50 (ES3)?
**A.** Its IC50 is 4.1 nM.

**Q.** What about the IC50 (ES5) of the same compound?
**A.** Its IC50 is > 512 nM.

**Q.** What about the IC50 (ES8) of the same compound?
**A.** The IC50 was 18.1 nM.

**Q.** And the IC50 (EW-1)?
**A.** The IC50 was 3.88 nM.

**Q.** What about the IC50 (GAK) of the same compound?
**A.** Its IC50 is 199 nM.

**Q.** And the IC50 (GI-ME-N)?
**A.** Its IC50 is 18.2 nM.

**Q.** And the IC50 (GT3TKB)?
**A.** The IC50 was 12.2 nM.

**Q.** What about the IC50 (HH) of the same compound?
**A.** Its IC50 is 95.9 nM.

**Q.** And the IC50 (HL-60)?
**A.** Its IC50 is > 512 nM.

**Q.** And the IC50 (HT-144)?
**A.** The IC50 was 0.518 nM.

**Q.** And the IC50 (HuTu80)?
**A.** Its IC50 is 0.657 nM.

**Q.** And the IC50 (IA-LM)?
**A.** Its IC50 is 2.39 nM.

**Q.** And the IC50 (IST-MES1)?
**A.** The IC50 was 138 nM.

**Q.** And the IC50 (J-RT3-T3-5)?
**A.** Its IC50 is 141 nM.

**Q.** And the IC50 (JAR)?
**A.** Its IC50 is > 512 nM.

**Q.** And the IC50 (JVM-2)?
**A.** The IC50 was > 512 nM.

**Q.** And the IC50 (K5)?
**A.** The IC50 was > 512 nM.

**Q.** What about the IC50 (KALS-1) of the same compound?
**A.** The IC50 was 0.516 nM.

**Q.** And the IC50 (KARPAS-299)?
**A.** Its IC50 is 35.6 nM.

**Q.** What about the IC50 (KARPAS-45) of the same compound?
**A.** The IC50 was 8.06 nM.

**Q.** And the IC50 (KM12)?
**A.** Its IC50 is 13.4 nM.

**Q.** And the IC50 (KMOE-2)?
**A.** The IC50 was 82.9 nM.

**Q.** And the IC50 (L-363)?
**A.** Its IC50 is 0.833 nM.

**Q.** And the IC50 (LAN-6)?
**A.** The IC50 was > 512 nM.

**Q.** What about the IC50 (LB2518-MEL) of the same compound?
**A.** The IC50 was 17.3 nM.

**Q.** What about the IC50 (LC-2-ad) of the same compound?
**A.** Its IC50 is 4.64 nM.

**Q.** And the IC50 (LOX IMVI)?
**A.** Its IC50 is 2.98 nM.

**Q.** And the IC50 (LU-134-A)?
**A.** Its IC50 is 93.3 nM.

**Q.** What about the IC50 (Lu-65) of the same compound?
**A.** Its IC50 is 8.49 nM.

**Q.** And the IC50 (MEG-01)?
**A.** Its IC50 is 10.8 nM.

**Q.** What about the IC50 (MHH-PREB-1) of the same compound?
**A.** The IC50 was 12.6 nM.

**Q.** What about the IC50 (MLMA) of the same compound?
**A.** The IC50 was 57.5 nM.

**Q.** What about the IC50 (MOLT-4) of the same compound?
**A.** The IC50 was 39.5 nM.

**Q.** And the IC50 (MV4-11)?
**A.** The IC50 was 11 nM.

**Q.** What about the IC50 (MZ7-mel) of the same compound?
**A.** The IC50 was 107 nM.

**Q.** And the IC50 (NCI-H1581)?
**A.** The IC50 was 0.55 nM.

**Q.** And the IC50 (NCI-H1770)?
**A.** The IC50 was 25.7 nM.

**Q.** What about the IC50 (SNU1) of the same compound?
**A.** The IC50 was 13.6 nM.

**Q.** What about the IC50 (NMC-G1) of the same compound?
**A.** The IC50 was 21.5 nM.

**Q.** What about the IC50 (NTERA-2-cl-D1) of the same compound?
**A.** Its IC50 is < 2 nM.

**Q.** And the IC50 (OCUB-M)?
**A.** The IC50 was 0.597 nM.

**Q.** And the IC50 (ONS-76)?
**A.** The IC50 was 9.98 nM.

**Q.** What about the IC50 (OVCAR-4) of the same compound?
**A.** Its IC50 is 2.93 nM.

**Q.** What about the IC50 (QIMR-WIL) of the same compound?
**A.** Its IC50 is > 512 nM.

**Q.** What about the IC50 (RPMI-8866) of the same compound?
**A.** Its IC50 is > 512 nM.

**Q.** And the IC50 (RXF 393)?
**A.** Its IC50 is > 512 nM.

**Q.** And the IC50 (SBC-1)?
**A.** The IC50 was 48 nM.

**Q.** What about the IC50 (SHP77) of the same compound?
**A.** Its IC50 is 59.1 nM.

**Q.** What about the IC50 (SK-N-FI) of the same compound?
**A.** The IC50 was 88.2 nM.

**Q.** And the IC50 (SK-PN-DW)?
**A.** Its IC50 is < 2 nM.

**Q.** What about the IC50 (SW 962) of the same compound?
**A.** The IC50 was 6.85 nM.

**Q.** And the IC50 (A3-KAW)?
**A.** The IC50 was 1.98 nM.

**Q.** And the IC50 (A4-Fuk)?
**A.** The IC50 was < 2 nM.

**Q.** What about the IC50 (A704) of the same compound?
**A.** The IC50 was 247 nM.

**Q.** And the IC50 (TE-10)?
**A.** Its IC50 is 1.57 nM.

**Q.** What about the IC50 (TE-11) of the same compound?
**A.** The IC50 was 9.14 nM.

**Q.** What about the IC50 (UACC-257) of the same compound?
**A.** The IC50 was 115 nM.

**Q.** What does the source list for `C[C@]1(c2nc3c(C(N)=O)cccc3[nH]2)CCCN1` [VELIPARIB]?
**A.** IC50 (COR-L88): > 5000 nM; IC50 (CP66-MEL): > 5000 nM; IC50 (CW-2): > 5000 nM; IC50 (Calu-6): > 5000 nM; IC50 (D283 Med): > 5000 nM; IC50 (D-502MG): > 5000 nM; IC50 (DB): > 5000 nM; IC50 (DEL): > 5000 nM; IC50 (DOHH-2): > 5000 nM; IC50 (ES3): > 5000 nM; IC50 (ES5): > 5000 nM; IC50 (ES8): > 5000 nM; IC50 (EW-1): > 5000 nM; IC50 (GAK): > 5000 nM; IC50 (GI-ME-N): > 5000 nM; IC50 (GT3TKB): > 5000 nM; IC50 (HH): > 5000 nM; IC50 (HL-60): > 5000 nM; IC50 (HT-144): > 5000 nM; IC50 (HuTu80): > 5000 nM; IC50 (IA-LM): > 5000 nM; IC50 (IST-MES1): > 5000 nM; IC50 (J-RT3-T3-5): > 5000 nM; IC50 (JAR): > 5000 nM; IC50 (JVM-2): > 5000 nM; IC50 (K5): > 5000 nM; IC50 (KALS-1): > 5000 nM; IC50 (KARPAS-299): > 5000 nM; IC50 (KARPAS-45): > 5000 nM; IC50 (KM12): > 5000 nM; IC50 (KMOE-2): > 5000 nM; IC50 (L-363): > 5000 nM; IC50 (LAN-6): > 5000 nM; IC50 (LB2518-MEL): > 5000 nM; IC50 (LC-2-ad): > 5000 nM; IC50 (LOX IMVI): > 5000 nM; IC50 (LU-134-A): > 5000 nM; IC50 (Lu-65): > 5000 nM; IC50 (MEG-01): > 5000 nM; IC50 (MHH-PREB-1): > 5000 nM; IC50 (MLMA): > 5000 nM; IC50 (MOLT-4): > 5000 nM; IC50 (MV4-11): > 5000 nM; IC50 (MZ7-mel): > 5000 nM; IC50 (NCI-H1581): > 5000 nM; IC50 (NCI-H1770): > 5000 nM; IC50 (SNU1): > 5000 nM; IC50 (NMC-G1): > 5000 nM; IC50 (NTERA-2-cl-D1): > 5000 nM; IC50 (OCUB-M): > 5000 nM; IC50 (ONS-76): > 5000 nM; IC50 (OVCAR-4): > 5000 nM; IC50 (QIMR-WIL): > 5000 nM; IC50 (RPMI-8866): > 5000 nM; IC50 (RXF 393): > 5000 nM; IC50 (SBC-1): > 5000 nM; IC50 (SHP77): > 5000 nM; IC50 (SK-N-FI): > 5000 nM; IC50 (SK-PN-DW): > 5000 nM; IC50 (SW 962): > 5000 nM; IC50 (A3-KAW): > 5000 nM; IC50 (A4-Fuk): > 5000 nM; IC50 (A704): > 5000 nM; IC50 (TE-10): > 5000 nM; IC50 (TE-11): > 5000 nM; IC50 (UACC-257): > 5000 nM
